Paper PMC8434491, “Targeting the Integrated Stress Response Kinase GCN2 to Modulate Retroviral Integration” (Molecules, 2021)

Experiments:
[1] = target: T1, GCN2 (Homo sapiens, UniProt Q9P2K8); test: In vitro phosphorylation assay: GCN2 activation (auto-phosphorylation); format: biochemical; conditions: with IN
T1 construct: expressed as a truncated version (192-1024) in fusion after a glutathione S-transferase tag; purchased SignalChem E12-11G
T1 sequence (Q9P2K8 192-1024): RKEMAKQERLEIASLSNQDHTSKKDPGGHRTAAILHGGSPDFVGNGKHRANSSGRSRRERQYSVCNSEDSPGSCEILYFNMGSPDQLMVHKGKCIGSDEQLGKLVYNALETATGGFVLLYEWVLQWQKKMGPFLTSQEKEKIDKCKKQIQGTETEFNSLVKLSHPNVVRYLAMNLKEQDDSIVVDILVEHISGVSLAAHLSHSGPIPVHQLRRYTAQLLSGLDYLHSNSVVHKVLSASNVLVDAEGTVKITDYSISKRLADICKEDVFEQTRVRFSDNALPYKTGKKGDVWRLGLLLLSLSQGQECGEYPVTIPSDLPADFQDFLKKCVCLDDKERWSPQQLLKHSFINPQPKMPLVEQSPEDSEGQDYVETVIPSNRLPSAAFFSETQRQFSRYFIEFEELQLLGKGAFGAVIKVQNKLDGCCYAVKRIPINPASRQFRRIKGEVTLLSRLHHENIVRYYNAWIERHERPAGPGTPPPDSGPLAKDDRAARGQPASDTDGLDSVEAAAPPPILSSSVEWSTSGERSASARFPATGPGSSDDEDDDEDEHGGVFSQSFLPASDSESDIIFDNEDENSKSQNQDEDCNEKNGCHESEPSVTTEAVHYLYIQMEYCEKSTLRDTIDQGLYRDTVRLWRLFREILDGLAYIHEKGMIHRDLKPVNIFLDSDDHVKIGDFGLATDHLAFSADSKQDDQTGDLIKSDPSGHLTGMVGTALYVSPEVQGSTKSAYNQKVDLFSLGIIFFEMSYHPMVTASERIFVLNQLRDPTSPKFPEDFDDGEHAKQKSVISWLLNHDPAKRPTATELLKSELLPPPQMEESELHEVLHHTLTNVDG
From the text: Enzymes. GCN2 was purchased from SignalChem (EIF2AK4, cat. #E12-11G). This human recombinant protein was expressed as a truncated version (192-1024) in fusion after a glutathione S-transferase tag (approximate molecular weight of 132 kDa). Recombinant full-length IN was expressed in E. coli BL21 pLys (IPTG induction) and purified on a nickel chelating column, as described. Integrity and purity were checked by direct Coomassie coloration of elution fractions on SDS-PAGE before dialysis to remove imidazole. Protein concentration was determined using a NanoDrop 2000 with the following parameters: molecular weight: 34 kDa, extinction coefficient ϵ = 50,460 mol^−1cm^−1L.
In vitro phosphorylation assay. Phosphorylation of IN (700 nM) was carried out using 25 nM of GCN2 in a reaction buffer containing 10 mM Tris-HCl pH 7.5, 50 mM NaCl, 15 mM MgCl2, 7.5 mM MnCl2, 10 mM DTT, 0.005% Nonidet P-40, 100 µM ATP, 50 µCi/µL of [γ-^32P]-ATP (3000 Ci/mmole, Perkin Elmer). Reactions (20 µL) were stopped after a 60 min incubation at 30 °C by adding 10 µL of loading buffer [80 mM Tris-HCl pH 6.8, 100 mM DTT, 10% glycerol, 1% sodium dodecyl sulfate (SDS) and 0.05% bromophenol blue]. Samples were then loaded onto a 10% denaturating SDS-PAGE. After protein separation (120 V for 120 min) the gel was stained using Coomassie Brilliant Blue R-250. Autoradiography was performed using an imaging plate (Fujifilm, Tokyo, Japan) and images were obtained with a FLA-5000 Imaging System (Fujifilm).

[2] = target: T2, HIV-1 IN (Human immunodeficiency virus type 1 group M subtype B, UniProt P04585); test: Integrase reaction, strand transfer (ST), gel-based; format: biochemical; conditions: serial dilutions from 100 µM to 45.7 nM
T2 construct: Recombinant full-length IN was expressed in E. coli BL21 pLys; 6xHis; made in house; host or cells: E. coli BL21 pLys
Experimental: Oligonucleotides. Oligonucleotides were purchased from Integrated DNA Technologies, Inc. (Leuven, Belgium), purified on polyacrylamide gel through electro-elution and dissolve in water. 19T ([…]) and 21B ([…]) correspond to the cleaved and non-cleaved strands specifically recognized by HIV-1 IN. Radiolabeling of 19T at the 5′-end was performed with [γ-^32P] ATP (Perkin-Elmer, Villebon-sur-Yvette, France) using T4 polynucleotide kinase (Promega, Charbonnières-les-Bains, France), according to the manufacturers’ instructions. Unincorporated isotopes were removed using illustra microspin G-25 Columns (Cytiva life sciences, Amersham, Little Chalfont, United Kingdom). DNA duplexes were annealed using an equimolar ratio of the complementary strand 21B, heating to 95 °C, and slow cooling to room temperature.
Integrase reactions. IN reactions were carried out by adding molecules or an equivalent volume of 100% DMSO (dimethyl sulfoxide, used as the drug solvent) to a mixture of 20 nM duplex DNA (19T/21B) and 400 nM IN in 50 mM MOPS pH 7.2, 7.5 mM MgCl2, and 14 mM 2-mercaptoethanol. Reactions were performed at 37 °C for 1 h and quenched by addition of an equal volume (10 µL) of loading buffer [formamide containing 1% SDS (sodium dodecyl sulfate), 0.25% bromophenol blue, and xylene cyanol]. Reaction products were separated in 16% polyacrylamide denaturing sequencing gels. Dried gels were visualized using a FLA-5000 imaging system (Fujifilm). Densitometric analyses were performed using the ImageQuant 5.1 software (GE Healthcare, Chicago, IL, USA) and data analyzed using Prism 6.05 software (GraphPad, San Diego, CA, USA).

O=C1c2c(O)ccc(O)c2C(=O)c2c(NCCNCCO)ccc(NCCNCCO)c21 [NSC279836, Mitoxantrone]
remaining activity at 100 µM ([1]; 100 µM, read-out: GCN2 auto-phosphorylation signal, % of the DMSO control): 171% | effect on GCN2 auto-phosphorylation in dose-response ([1]; serial dilutions from 300 µM to 137 nM): reproducible increase | concentrations giving full inhibition of ST activity ([2]; only IN present): above 11 µM | effect on IN strand transfer activity ([2]; only IN present): active | apparent IC50, ST activity ([2]; in words): low-micromolar range
